Measured values reported in patent US10294202B2, “Pyrrolidinones as herbicides” (FMC Corporation, priority 2013, dated 2019).
Where two headings read alike, the source gives them in different places.

What was measured:
giant foxtail = assay: Test A pre-/postemergence herbicide test; format: in vivo, Setaria faberii; conditions: for Foxtail, Giant plant response rating: Preemergence, visual rating on 0 to 100 scale (0 no effect, 100 complete control)
Outline: (§1)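 Visual 0–100 ratings (100 = complete control) made about 10 days after treatment, greenhouse-held plants compared with untreated controls. Treatments: postemergence sprays on one- to two-leaf plants (2–10 cm tall) and preemergence directed soil sprays after planting in loam–sand, chemicals formulated in non-phytotoxic solvent containing surfactant.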

pigweed = assay: Test A pre-/postemergence herbicide test; format: in vivo, Amaranthus retroflexus; conditions: for Pigweed plant response rating: Preemergence, visual rating on 0 to 100 scale (0 no effect, 100 complete control)
Outline: as §1

wheat = assay: Test A pre-/postemergence herbicide test; format: in vivo, Triticum aestivum; conditions: for Wheat plant response rating: Preemergence, visual rating on 0 to 100 scale (0 no effect, 100 complete control)
Outline: as §1

sedge, umbrella = assay: Test B flooded paddy test; format: in vivo, Cyperus difformis; conditions: 250 g ai/ha, Flood; scale of 0 to 100 where 0 is no effect and 100 is complete control
Outline: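 Visual ratings from 0, meaning no effect, up to 100, meaning complete control, were made by comparison with untreated controls 13 to 15 days after treatment. Test compounds went straight into floodwater standing 3 cm over the soil of pots holding 2-leaf seedlings.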

blackgrass = assay: Test C pre-/postemergence herbicide test; format: in vivo, Alopecurus myosuroides; conditions: for Blackgrass plant response rating: scale 0 to 100, 0 is no effect and 100 is complete control
Outline: (§2)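 Greenhouse plants scored visually against untreated controls 13–15 days after treatment, 0 = no effect, 100 = complete control. Test chemicals in a non-phytotoxic solvent with surfactant were applied either to soil (loam/sand) at planting or to foliage of 1- to 4-leaf plants, 2–18 cm tall.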

ryegrass, Italian = assay: Test C pre-/postemergence herbicide test; format: in vivo, Lolium multiflorum; conditions: for Ryegrass, Italian plant response rating: scale 0 to 100, 0 is no effect and 100 is complete control
Outline: as §2

crabgrass, large = assay: Test C pre-/postemergence herbicide test; format: in vivo, Digitaria sanguinalis; conditions: for Crabgrass, Large plant response rating: scale 0 to 100, 0 is no effect and 100 is complete control
Outline: as §2

foxtail, giant = assay: Test C pre-/postemergence herbicide test; format: in vivo, Setaria faberii; conditions: for Foxtail, Giant plant response rating: scale 0 to 100, 0 is no effect and 100 is complete control
Outline: as §2

johnsongrass = assay: Test C pre-/postemergence herbicide test; format: in vivo, Sorghum halepense; conditions: for Johnsongrass plant response rating: scale 0 to 100, 0 is no effect and 100 is complete control
Outline: as §2

nutsedge, yellow = assay: Test C pre-/postemergence herbicide test; format: in vivo, Cyperus esculentus; conditions: for Nutsedge, Yellow plant response rating: scale 0 to 100, 0 is no effect and 100 is complete control
Outline: as §2

ragweed = assay: Test C pre-/postemergence herbicide test; format: in vivo, Ambrosia elatior
Outline: as §2

[1] = Postemergence, 31 g ai/ha, scale 0 (no effect) to 100 (complete control)
[2] = Postemergence, 62 g ai/ha, scale 0 to 100 (0 no effect, 100 complete control)
[3] = Postemergence, 125 g ai/ha, scale 0 to 100 (0 no effect, 100 complete control)
[4] = Postemergence, 250 g ai/ha, scale 0 to 100 (0 no effect, 100 complete control)
[5] = Preemergence, 62 g ai/ha, scale 0 to 100
[6] = Preemergence, 125 g ai/ha, scale 0 to 100 (0 no effect, 100 complete control)
[7] = Postemergence, 125 g ai/ha, 0 to 100 scale, 0 no effect, 100 complete control
[8] = Postemergence, 500 g ai/ha, 0 to 100 scale (0 no effect, 100 complete control)
[9] = preemergence, 500 g ai/ha, 0 to 100 scale

O=C1NCC(c2ccc(C(F)(F)F)cc2)C1C(=O)Nc1cccc(F)c1F (stereo not drawn) [Compound 80, N-(2,3-difluorophenyl)-2-oxo-4-[4-(trifluoromethyl)phenyl]-3-pyrrolidinecarboxamide]
Foxtail, Giant plant response rating (giant foxtail; 125 g ai/ha): 90 | pest or weed control at 125 g/ha (giant foxtail; Setaria faberi, post-emergence, 240 h, Postemergence, 125 g ai/ha, 0 to 100 scale, 0 no effect, 100 complete control, read-out: Plant response rating, Foxtail, Giant): 80% | pest or weed control at 500 g/ha (giant foxtail; Setaria faberi, post-emergence, 240 h, Postemergence, 500 g ai/ha, 0 to 100 scale (0 no effect, 100 complete control), read-out: Plant response rating, Foxtail, Giant): 80% | pest or weed control at 500 g/ha (giant foxtail; Setaria faberi, pre-emergence, 240 h, preemergence, 500 g ai/ha, 0 to 100 scale, read-out: Plant response rating, Foxtail, Giant): 90% | pest or weed control at 125 g/ha (pigweed; Amaranthus retroflexus, post-emergence, 240 h, Postemergence, 125 g ai/ha, 0 to 100 scale, 0 no effect, 100 complete control, read-out: Plant response rating, Pigweed): 60% | pest or weed control at 500 g/ha (pigweed; Amaranthus retroflexus, post-emergence, 240 h, Postemergence, 500 g ai/ha, 0 to 100 scale (0 no effect, 100 complete control), read-out: Plant response rating, Pigweed): 70% | pest or weed control at 500 g/ha (pigweed; Amaranthus retroflexus, pre-emergence, 240 h, preemergence, 500 g ai/ha, 0 to 100 scale, read-out: Plant response rating, Pigweed): 80% | Pigweed plant response rating (pigweed; 125 g ai/ha): 60 | Wheat plant response rating (wheat; 125 g ai/ha): 0 | plant injury at 125 g/ha (wheat; Triticum aestivum, post-emergence, 240 h, Postemergence, 125 g ai/ha, 0 to 100 scale, 0 no effect, 100 complete control, read-out: Plant response rating, Wheat): 40% | plant injury at 500 g/ha (wheat; Triticum aestivum, post-emergence, 240 h, Postemergence, 500 g ai/ha, 0 to 100 scale (0 no effect, 100 complete control), read-out: Plant response rating, Wheat): 50% | plant injury at 500 g/ha (wheat; Triticum aestivum, pre-emergence, 240 h, preemergence, 500 g ai/ha, 0 to 100 scale, read-out: Plant response rating, Wheat): 20% | Plant response rating, Sedge, Umbrella (sedge, umbrella): 0 | Plant response rating, Blackgrass (blackgrass; [1]): 0 | Plant response rating, Blackgrass (blackgrass; [2]): 0 | Plant response rating, Blackgrass (blackgrass; [3]): 0 | Plant response rating, Blackgrass (blackgrass; [4]): 5 | Blackgrass plant response rating (blackgrass; Preemergence, 31 g ai/ha): 30 | Plant response rating, Blackgrass (blackgrass; [5]): 80 | Plant response rating, Blackgrass (blackgrass; [6]): 85 | Plant response rating (scale of 0 to 100), Blackgrass (blackgrass; Preemergence, 250 g ai/ha): 90 | Plant response rating, Ryegrass, Italian (ryegrass, Italian; [1]): 0 | Plant response rating, Ryegrass, Italian (ryegrass, Italian; [2]): 0 | Plant response rating, Ryegrass, Italian (ryegrass, Italian; [3]): 0 | Plant response rating, Ryegrass, Italian (ryegrass, Italian; [4]): 0 | Ryegrass, Italian plant response rating (ryegrass, Italian; Preemergence, 31 g ai/ha): 0 | Plant response rating, Ryegrass, Italian (ryegrass, Italian; [5]): 40 | Plant response rating, Ryegrass, Italian (ryegrass, Italian; [6]): 40 | Plant response rating (scale of 0 to 100), Ryegrass, Italian (ryegrass, Italian; Preemergence, 250 g ai/ha): 45 | Plant response rating, Crabgrass, Large (crabgrass, large; [1]): 5 | Plant response rating, Crabgrass, Large (crabgrass, large; [2]): 40 | Plant response rating, Crabgrass, Large (crabgrass, large; [3]): 65 | Plant response rating, Crabgrass, Large (crabgrass, large; [4]): 75 | Crabgrass, Large plant response rating (crabgrass, large; Preemergence, 31 g ai/ha): 95 | Plant response rating, Crabgrass, Large (crabgrass, large; [5]): 98 | Plant response rating, Crabgrass, Large (crabgrass, large; [6]): 98 | Plant response rating (scale of 0 to 100), Crabgrass, Large (crabgrass, large; Preemergence, 250 g ai/ha): 100 | Plant response rating, Foxtail, Giant (foxtail, giant; [1]): 0 | Plant response rating, Foxtail, Giant (foxtail, giant; [2]): 0 | Plant response rating, Foxtail, Giant (foxtail, giant; [3]): 45 | Plant response rating, Foxtail, Giant (foxtail, giant; [4]): 45 | Foxtail, Giant plant response rating (foxtail, giant; Preemergence, 31 g ai/ha): 90 | Plant response rating, Foxtail, Giant (foxtail, giant; [5]): 95 | Plant response rating, Foxtail, Giant (foxtail, giant; [6]): 98 | Plant response rating (scale of 0 to 100), Foxtail, Giant (foxtail, giant; Preemergence, 250 g ai/ha): 98 | Plant response rating, Johnsongrass (johnsongrass; [1]): 5 | Plant response rating, Johnsongrass (johnsongrass; [2]): 5 | Plant response rating, Johnsongrass (johnsongrass; [3]): 5 | Plant response rating, Johnsongrass (johnsongrass; [4]): 10 | Johnsongrass plant response rating (johnsongrass; Preemergence, 31 g ai/ha): 0 | Plant response rating, Johnsongrass (johnsongrass; [5]): 0 | Plant response rating, Johnsongrass (johnsongrass; [6]): 30 | Plant response rating (scale of 0 to 100), Johnsongrass (johnsongrass; Preemergence, 250 g ai/ha): 55 | Plant response rating, Nutsedge, Yellow (nutsedge, yellow; [1]): 0 | Plant response rating, Nutsedge, Yellow (nutsedge, yellow; [2]): 0 | Plant response rating, Nutsedge, Yellow (nutsedge, yellow; [3]): 0 | Plant response rating, Nutsedge, Yellow (nutsedge, yellow; [4]): 0 | Nutsedge, Yellow plant response rating (nutsedge, yellow; Preemergence, 31 g ai/ha): 0 | Plant response rating, Nutsedge, Yellow (nutsedge, yellow; [5]): 0 | Plant response rating, Nutsedge, Yellow (nutsedge, yellow; [6]): 0 | Plant response rating (scale of 0 to 100), Nutsedge, Yellow (nutsedge, yellow; Preemergence, 250 g ai/ha): 10 | Plant response rating, Ragweed (ragweed; [1]): 30 | Plant response rating, Ragweed (ragweed; [2]): 30 | Plant response rating, Ragweed (ragweed; [3]): 30 | Plant response rating, Ragweed (ragweed; [4]): 30

O=C1NCC(c2cccc(OC(F)(F)F)c2)C1C(=O)Nc1ccccc1F (stereo not drawn) [Compound 69]
Plant response rating, Foxtail, Giant (giant foxtail; [7]): 80 | Plant response rating, Foxtail, Giant (giant foxtail; [8]): 80 | Foxtail, Giant plant response rating (giant foxtail; 125 g ai/ha): 90 | Plant response rating, Foxtail, Giant (giant foxtail; [9]): 90 | Plant response rating, Pigweed (pigweed; [7]): 20 | Plant response rating, Pigweed (pigweed; [8]): 30 | Pigweed plant response rating (pigweed; 125 g ai/ha): 0 | Plant response rating, Pigweed (pigweed; [9]): 20 | Plant response rating, Wheat (wheat; [7]): 0 | Plant response rating, Wheat (wheat; [8]): 40 | Wheat plant response rating (wheat; 125 g ai/ha): 0 | Plant response rating, Wheat (wheat; [9]): 20 | Plant response rating, Sedge, Umbrella (sedge, umbrella): 65 | Blackgrass plant response rating (blackgrass; Preemergence, 31 g ai/ha): 0 | Plant response rating, Blackgrass (blackgrass; [5]): 5 | Plant response rating, Blackgrass (blackgrass; [6]): 30 | Plant response rating (scale of 0 to 100), Blackgrass (blackgrass; Preemergence, 250 g ai/ha): 35 | Ryegrass, Italian plant response rating (ryegrass, Italian; Preemergence, 31 g ai/ha): 0 | Plant response rating, Ryegrass, Italian (ryegrass, Italian; [5]): 0 | Plant response rating, Ryegrass, Italian (ryegrass, Italian; [6]): 0 | Plant response rating (scale of 0 to 100), Ryegrass, Italian (ryegrass, Italian; Preemergence, 250 g ai/ha): 10 | Crabgrass, Large plant response rating (crabgrass, large; Preemergence, 31 g ai/ha): 90 | Plant response rating, Crabgrass, Large (crabgrass, large; [5]): 90 | Plant response rating, Crabgrass, Large (crabgrass, large; [6]): 95 | Plant response rating (scale of 0 to 100), Crabgrass, Large (crabgrass, large; Preemergence, 250 g ai/ha): 95 | Foxtail, Giant plant response rating (foxtail, giant; Preemergence, 31 g ai/ha): 75 | Plant response rating, Foxtail, Giant (foxtail, giant; [5]): 85 | Plant response rating, Foxtail, Giant (foxtail, giant; [6]): 85 | Plant response rating (scale of 0 to 100), Foxtail, Giant (foxtail, giant; Preemergence, 250 g ai/ha): 90 | Johnsongrass plant response rating (johnsongrass; Preemergence, 31 g ai/ha): 0 | Plant response rating, Johnsongrass (johnsongrass; [5]): 0 | Plant response rating, Johnsongrass (johnsongrass; [6]): 0 | Plant response rating (scale of 0 to 100), Johnsongrass (johnsongrass; Preemergence, 250 g ai/ha): 0 | Nutsedge, Yellow plant response rating (nutsedge, yellow; Preemergence, 31 g ai/ha): 0 | Plant response rating, Nutsedge, Yellow (nutsedge, yellow; [6]): 0 | Plant response rating (scale of 0 to 100), Nutsedge, Yellow (nutsedge, yellow; Preemergence, 250 g ai/ha): 10 | Ragweed plant response rating (ragweed; Preemergence, 31 g ai/ha, scale 0 to 100, 0 is no effect and 100 is complete control): 0 | Plant response rating, Ragweed (ragweed; [5]): 0 | Plant response rating, Ragweed (ragweed; [6]): 0 | Plant response rating (scale of 0 to 100), Ragweed (ragweed; Preemergence, 250 g ai/ha): 20
